Experimental data as given in paper PMC10584170, “Machine learning-based phenotypic imaging to characterise the targetable biology of Plasmodium falciparum male gametocytes for the development of transmission-blocking antimalarials” (PLOS Pathogens, 2023).
pIC50: −log10 of the molar value. Like-named read-outs stand apart in the source and are kept apart here.

Columns and labels:
[1] = tested on: P. falciparum female gametocytes; assay: P. falciparum Dual Gamete Formation Assay (PfDGFA), female readout (Pfs25-positive female gametes); type: cell-based, Plasmodium falciparum NF54; conditions: for Selectivity ratio F: HepG2 Tox50 versus female IC50; for inhibition at 2 µM / pIC50: Plasmodium falciparum; for pIC50: PfDGFA, 24 h incubation with gametocytes before induction, female gamete readout, read-out: Female IC50
Experimental: (§1) P. falciparum NF54 (originally isolated from an imported malaria case in the Netherlands in the 1980s; BEI Resources, cat. No. MRA-1000) strain asexual parasites were maintained between 0.3–5% parasitaemia by regular passage in complete culture medium (RPMI supplemented with 25 mM HEPES, 50 μg ml^−1 hypoxanthine, 4.8 g l^−1 NaHCO3, 2mM L-glutamine, 5% pooled type AB serum, 0.5% Albumax II (Gibco)) at 4% haematocrit in washed whole blood (National Blood and Transfusion Service or Centro de Transfusiones de la Comunidad de Madrid CTCM) under a 1% O2/3% CO2/96% N2 environment. Gametocytes were induced by seeding culture flasks at 2% parasitaemia/4% haematocrit and subjecting them to daily medium changes for 14 days whilst maintaining a temperature of 37°C at all times. On Day 14, the maturity of gametocytes was assessed by quantifying male gametogenesis (exflagellation). A 20 μl sample of gametocyte culture was mixed with equal volume of ookinete medium (complete culture medium supplemented with 0.1 μM xanthurenic acid) at room temperature and transferred to a haemocytometer. After 20 min at room temperature, exflagellation was accurately quantified as described in Delves et al. 2016 [17].
(§2) The Pf DGFA was performed as described in Delves et al. 2016 [17]. […] Plates were then incubated for 24 h at 37°C in a humidified box under a 1% O2/3% CO2/96% N2 gas mix. Gametogenesis was triggered by addition of 10 μl per well of ookinete medium + 0.27 μg ml^-1 Cy3-labelled anti-Pfs25 antibody. Plates were incubated on a metal block at 4°C for 4 min to ensure even cooling, then 28°C for a further 4 min. Exflagellation was recorded by capturing 10 frames over 1 s under brightfield illumination using a x4 objective with a 1.5x zoom (effectively x6) attached to an automated Nikon Ti fluorescence microscope. After recording exflagellation, plates were incubated for a further 24 h in the dark at 28°C to ensure maximal expression of Pfs25 by female gametes. The plates were then returned to the microscope and female gametes imaged at x6 using fluorescence microscopy.
(§3) Exflagellation centres and female gametes were quantified using custom image analysis pipelines developed within ICY Bioimage Analysis (https://icy.bioimageanalysis.org/).

[2] = tested on: P. falciparum male gametocytes; assay: P. falciparum Dual Gamete Formation Assay (PfDGFA), male readout (exflagellation); type: cell-based, Plasmodium falciparum NF54; conditions: for Selectivity Ratio M: HepG2 Tox50 versus male IC50; for inhibition at 2 µM / pIC50: Plasmodium falciparum; for pIC50: PfDGFA, 24 h incubation with gametocytes before induction, exflagellation readout, read-out: Male IC50; for Activity: hit = >50% inhibition in male or female readout in at least 3 replicates, 0 = no class assigned
Experimental: as §1, §2, §3

[3] = 2µM, 24h preincubation with gametocytes prior to induction of gametogenesis, average of replicates
[4] = 2µM, 24h preincubation with gametocytes prior to induction of gametogenesis, replicate R1
[5] = 2µM, 24h preincubation with gametocytes prior to induction of gametogenesis, replicate R3
[6] = 2µM, 24h preincubation with gametocytes prior to induction of gametogenesis, replicate R4
[7] = 2µM, 24h preincubation, hits selected on >50% inhibition in the female readout across replicates
[8] = 2µM, 24h preincubation, hits selected on >50% inhibition in the male readout across replicates
[9] = PfDGFA at 2µM, 24h preincubation
[10] = PfDGFA at 2µM, 24h preincubation with gametocytes prior to induction of gametogenesis, replicate R1
[11] = PfDGFA at 2µM, 24h preincubation with gametocytes prior to induction of gametogenesis, replicate R3
[12] = PfDGFA at 2µM, 24h preincubation with gametocytes prior to induction of gametogenesis, replicate R4
[13] = PfDGFA at 2µM, 24h preincubation, average of replicates
[14] = 2µM, 24h preincubation, number of replicates with >50% inhibition in the female readout
[15] = 2µM, 24h preincubation, number of replicates with >50% inhibition in the male readout

Row | SMILES | Average inhibition female (%) [1, 3] [%] | % inhibition female (individual replicates) R1 [1, 4] [%] | % inhibition female (individual replicates) R3 [1, 5] [%] | % inhibition female (individual replicates) R4 [1, 6] [%] | HitlevelF [1, 7] | Average inhibition male (%) [2, 3] [%] | % inhibition male (individual replicates) R1 [2, 4] [%] | % inhibition male (individual replicates) R3 [2, 5] [%] | % inhibition male (individual replicates) R4 [2, 6] [%] | HitlevelM [2, 8] | Activity [2, 9] | % inhibition female (individual replicates) R1 [1, 10] [%] | % inhibition female (individual replicates) R3 [1, 11] [%] | % inhibition female (individual replicates) R4 [1, 12] [%] | Average inhibition female (%) [1, 13] [%] | % inhibition male (individual replicates) R1 [2, 10] [%] | % inhibition male (individual replicates) R4 [2, 12] [%] | Average inhibition male (%) [2, 13] [%] | also measured
1 | FC(F)(F)c1cccc(NC(=S)NN=Cc2ccccn2)c1 [TCMDC-123509] | – | – | – | – | – | – | – | – | – | – | – | – | – | – | – | – | – | – | Selectivity ratio F [1]: 142.25; inhibition at 2 µM ([1]; 2µM, 24h preincubation with gametocytes, average of replicates, read-out: Average inhibition female (%)): 50.5%; inhibition at 2 µM ([1]; 2µM, 24h preincubation with gametocytes, replicate R1, read-out: % inhibition female (individual replicates) R1): 35.3%; inhibition at 2 µM ([1]; 2µM, 24h preincubation with gametocytes, replicate R2, read-out: % inhibition female (individual replicates) R2): 76.8%; inhibition at 2 µM ([1]; 2µM, 24h preincubation with gametocytes, replicate R3, read-out: % inhibition female (individual replicates) R3): 45%; inhibition at 2 µM ([1]; 2µM, 24h preincubation with gametocytes, replicate R4, read-out: % inhibition female (individual replicates) R4): 45%; pIC50 [1]: 6.15; Selectivity Ratio M [2]: 143.09; inhibition at 2 µM ([2]; 2µM, 24h preincubation with gametocytes, average of replicates, read-out: Average inhibition male (%)): 94.6%; inhibition at 2 µM ([2]; 2µM, 24h preincubation with gametocytes, replicate R1, read-out: % inhibition male (individual replicates) R1): 103%; inhibition at 2 µM ([2]; 2µM, 24h preincubation with gametocytes, replicate R2, read-out: % inhibition male (individual replicates) R2): 94.6%; inhibition at 2 µM ([2]; 2µM, 24h preincubation with gametocytes, replicate R3, read-out: % inhibition male (individual replicates) R3): 102%; inhibition at 2 µM ([2]; 2µM, 24h preincubation with gametocytes, replicate R4, read-out: % inhibition male (individual replicates) R4): 79.6%; pIC50 [2]: 6.15
2 | CC1(C)N=C(N)N=C(N)N1c1ccc(Oc2ccc(Cl)cc2)c(Cl)c1 [TCMDC-123522] | 4.9 | 11.0 | 16.4 | -0.18 | 0 | -4.1 | 6.1 | -10.9 | -16.5 | 0 | 0 | – | – | – | – | – | – | – | –
3 | Cc1cc(N2CCN(C)CC2)nc2ccc(NC(=O)Cc3cccc(C(F)(F)F)c3)cc12 [TCMDC-123590] | – | – | – | – | – | – | – | – | – | – | – | 1.4 | 3.7 | -0.7 | 2.2 | 6.9 | -7.6 | 3.5 | –
4 | Cc1ccc(-c2nc3cc(NC(=O)c4ccc([N+](=O)[O-])o4)ccc3o2)cc1Cl [TCMDC-123657] | 15.9 | 10.9 | 11.0 | 33.8 | 0 | 5.4 | 3.2 | -3.8 | 12.9 | 0 | 0 | – | – | – | – | – | – | – | –
5 | CC(=O)c1cccc(S(=O)(=O)NCCCNc2nc3cc(C)cc(C)c3cc2C#N)c1 [TCMDC-123734] | 6.2 | 1.3 | -13.6 | 33.9 | 0 | -13.5 | -6.4 | -3.8 | -42.5 | 0 | 0 | – | – | – | – | – | – | – | –
6 | COc1ccc(C2CC(c3cccs3)=NN2C(=O)c2ccccc2)cc1OC (centres unmarked) [TCMDC-123755] | – | – | – | – | – | – | – | – | – | – | – | 2.3 | -20.6 | -7.2 | -3.5 | -16.5 | 27.6 | 0.438 | % inhibition male (individual replicates) R3 [2, 11]: -10.3%
7 | OC1CCN(c2cc(-c3ccccn3)nc(-c3ccccn3)n2)CC1 [TCMDC-123786] | – | – | – | – | – | – | – | – | – | – | – | -1.4 | -6.8 | 3.7 | 0.215 | -14.8 | -28.8 | -7.4 | –
8 | Cc1cc(C(=O)OCC(=O)Nc2c(C)n(C)n(-c3ccccc3)c2=O)c(C)n1-c1ccc(F)cc1 [TCMDC-123794] | – | – | – | – | – | – | – | – | – | – | – | – | – | – | – | – | – | – | HitlevelF [1, 14]: 2; Selectivity ratio F [1]: 69.69; inhibition at 2 µM ([1]; 2µM, 24h preincubation with gametocytes prior to induction of gametogenesis, average of replicates, read-out: Average inhibition female (%)): 48.8%; inhibition at 2 µM ([1]; 2µM, 24h preincubation with gametocytes prior to induction of gametogenesis, replicate R1, read-out: % inhibition female (individual replicates) R1): 29.7%; inhibition at 2 µM ([1]; 2µM, 24h preincubation with gametocytes prior to induction of gametogenesis, replicate R2, read-out: % inhibition female (individual replicates) R2): 52.6%; inhibition at 2 µM ([1]; 2µM, 24h preincubation with gametocytes prior to induction of gametogenesis, replicate R3, read-out: % inhibition female (individual replicates) R3): 40.8%; inhibition at 2 µM ([1]; 2µM, 24h preincubation with gametocytes prior to induction of gametogenesis, replicate R4, read-out: % inhibition female (individual replicates) R4): 72.3%; pIC50 [1]: 5.84; HitlevelM [2, 15]: 3; Selectivity Ratio M [2]: 52.65; inhibition at 2 µM ([2]; 2µM, 24h preincubation with gametocytes prior to induction of gametogenesis, average of replicates, read-out: Average inhibition male (%)): 57.2%; inhibition at 2 µM ([2]; 2µM, 24h preincubation with gametocytes prior to induction of gametogenesis, replicate R1, read-out: % inhibition male (individual replicates) R1): 63.3%; inhibition at 2 µM ([2]; 2µM, 24h preincubation with gametocytes prior to induction of gametogenesis, replicate R2, read-out: % inhibition male (individual replicates) R2): 40.1%; inhibition at 2 µM ([2]; 2µM, 24h preincubation with gametocytes prior to induction of gametogenesis, replicate R3, read-out: % inhibition male (individual replicates) R3): 55.8%; inhibition at 2 µM ([2]; 2µM, 24h preincubation with gametocytes prior to induction of gametogenesis, replicate R4, read-out: % inhibition male (individual replicates) R4): 69.6%; pIC50 [2]: 5.72
9 | N#CCSc1nnc(-c2ccccc2)c2ccccc12 [TCMDC-123867] | – | – | – | – | – | – | – | – | – | – | – | 9.7 | -27.1 | 6.9 | -4.3 | -3.0 | -3.8 | 1.3 | % inhibition male (individual replicates) R3 [2, 11]: 10.5%
10 | CC1(C)N=C(N)N=C(N)N1c1ccc(Br)cc1.Cl [TCMDC-123959] | 18.2 | 15.6 | 12.6 | 26.1 | – | -8.5 | 15.3 | 4.6 | -63.1 | – | – | – | – | – | – | – | – | – | HitlevelF [1, 14]: 0; HitlevelM [2, 15]: 0
11 | CC1(C)N=C(N)N=C(N)N1c1cccc(Cl)c1.Cl [TCMDC-123960] | – | – | – | – | – | – | – | – | – | – | – | 5.3 | -21.5 | 5.4 | -0.8 | 4.7 | -9.8 | 3.0 | % inhibition male (individual replicates) R3 [2, 11]: -1.4%
12 | Br.C[C@@H](COc1ccc(-c2ccccc2)cc1)CON1C(N)=NC(N)=NC1(C)C [TCMDC-124029] | 5.2 | -6.6 | 32.8 | -1.3 | 0 | 12.1 | 13.7 | -5.2 | 7.3 | 0 | 0 | – | – | – | – | – | – | – | –
